According to patent publication US20080045537A1, “Chemical Compounds” (priority 2004, published 2008):
Where two headings read alike, the source gives them in different places. Blank lines part the entries; values can stand above or below the molecule they belong to.

Experiments:
Assay type in all cases: cell-based
[1] = system: HIV-1 IIIB (T-tropic, CXCR4 utilizing); test: HOS HIV-1 infectivity assay
Procedure, shortened: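 HOS cells expressing hCXCR4/hCCR5/hCD4 and an HIV-LTR-luciferase reporter, in DMEM with 2% FCS, were pre-treated with compound for 1 h, then infected with HIV-1 IIIB (~2 million RLU/well) for 96 h at 37° C. Infection was read by Steady-Glo luciferase; cytotoxicity in uninfected cultures by CellTiter-Glo.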

[2] = Compound cytotoxicity in the absence of virus addition (CellTiter-Glo); conditions: human; non-infected HOS cultures; read-out: Cytotox (pIC50) (converted)
Procedure: Compounds were profiled against two HIV-1 viruses, the M-tropic (CCR5 utilizing) Ba-L strain and the T-tropic (CXCR4 utilizing) IIIB strain. Both viruses were propagated in human peripheral blood lymphocytes. Compounds were tested for there ability to block infection of the HOS cell line (expressing hCXCR4/hCCR5/hCD4/pHIV-LTR-luciferase) by either HIV-1 Ba-L or HIV-1 IIIB. Compound cytotoxicity was also examined in the absence of virus addition.
HOS cells (expressing hCXCR4/hCCR5/hCD4/pHIV-LTR-luciferase) were harvested and diluted in Dulbeccos modified Eagles media supplemented with 2% FCS and non-essential amino acid to a concentration of 60,000 cells/ml. The cells were plated into 96-well plates (100 ul per well) and the plates were placed in a tissue culture incubator (37° C.; 5% CO2/95% air) for a period of 24 h.
Subsequently, 50 ul of the desired drug solution (4 times the final concentration) was added to each well and the plates were returned to the tissue culture incubator (37° C.; 5% CO2/95% air) for 1 h. Following this incubation 50 ul of diluted virus was added to each well (approximately 2 million RLU per well of virus). The plates were returned to the tissue culture incubator (37° C.; 5% CO2/95% air) and were incubated for a further 96 h.
Following this incubation the endpoint for the virally infected cultures was quantified following addition of Steady-Glo Luciferase assay system reagent (Promega, Madison, Wis.). Cell viability or non-infected cultures was measured using a CellTiter-Glo luminescent cell viability assay system (Promega, Madison, Wis.). All luminescent readouts are performed on a Topcount luminescence detector (Packard, Meridien, Conn.).

[3] = system: HIV-1 gp160 (from the HXB2 HIV strain); test: Cell/cell fusion assay (HEK-293 expressing HIV-1 tat, rev, gp160 with HOS hCXCR4/hCCR5/hCD4/pHIV-LTR-luciferase cells); conditions: Human immunodeficiency virus 1, HXB2, HEK293, 24 h, read-out: Fusion assay (pIC50), luciferase readout after 24 h (converted)
Source text: The complete coding sequences of HIV-1 tat (GenBank Accession No. X07861) and rev (GenBank Accession No. M34378) were cloned into pcDNA3.1 expression vectors containing G418 and hygromycin resistance genes, respectively. The complete coding sequence of the HIV-1 (HXB2 strain) gp160 envelope gene (nucleotide bases 6225-8795 of GenBank Accession No. K03455) was cloned into plasmid pCRII-TOPO. The three HIV genes were additionally inserted into the baculovirus shuttle vector, pFastBacMam1, under the transcriptional control of the CMV promoter. A construction of the pHIV-I LTR containing mutated NFkB sequences linked to the luciferase reporter gene was prepared by digesting pcDNA3.1, containing the G418 resistance gene, with Nru I and Bam HI to remove the CMV promoter. LTR-luc was then cloned into the Nru I/Bam HI sites of the plasmid vector. Plasmid preparations were performed after the plasmids were amplified in Escherichia coli strain DH5-alpha. The fidelity of the inserted sequences was confirmed by double-strand nucleotide sequencing using an ABI Prism Model 377 automated sequencer.
Recombinant BacMam baculoviruses were constructed from pFastBacMam shuttle plasmids by using the bacterial cell-based Bac-to-Bac system. Viruses were propagated in Sf9 (Spodoptera frugiperda) cells cultured in Hink's TNM-FH Insect media supplemented with 10% (v/v) fetal bovine serum and 0.1% (v/v) pluronic F-68 according to established protocols.
Human osteosarcoma (HOS) cells that naturally express human CXCR4 were transfected with human CCR5, human CD4 and the pHIV-LTR-luciferase plasmid using FuGENE 6 transfection reagent. Single cells were isolated and grown under selection condition in order to generate a stable HOS (hCXCR4/hCCR5/hCD4/pHIV-LTR-luciferase) clonal cell line. The cells were maintained in Dulbeccos modified Eagles media supplemented with 10% fetal calf serum (FCS), G418 (400 ug/ml), puromycin (1 ug/ml), mycophenolic acid (40 ug/ml), xanthine (250 ug/ml) and hypoxanthine (13.5 ug/ml) to maintain a selection pressure for cells expressing the LTR-luciferase, hCCR5 and hCD4, respectively. Human embryonic kidney (HEK-293) cells stably transfected to express the human macrophage scavenging receptor (Class A, type 1; GenBank Accession No. D90187), were maintained in DMEM/F-12 media (1:1) supplemented with 10% FCS and 1.5 ug/ml puromycin. The expression of this receptor by the HEK-293 cells enhances their ability to stick to tissue culture treated plasticware.
HEK-293 cells were harvested using enzyme-free cell dissociation buffer. The cells were resuspended in DMEM/F-12 media supplemented with 10% FCS and 1.5 ug/ml and counted. Tranductions were performed by direct addition of BacMam baculovirus containing insect cell media to cells. The cells were simultaneously transduced with BacMam baculovirus expressing HIV-1 tat, HIV-1 rev and HIV-1 gp160 (from the HXB2 HIV strain). Routinely an MOI of 10 of each virus was added to the media containing the cells. 2 mM butyric acid was also added to the cells at this stage to increase protein expression in transduced cells. The cells were subsequently mixed and seeded into a flask at 30 million cells per T225. The cells were incubated at 37° C., 5% CO2, 95% humidity for 24 h to allow for protein expression.
HEK and HOS cells were harvested in DMEM/F-12 media containing 2% FCS and DMEM media containing 2% FCS, respectively, with no selection agents added. Compounds were plated as 1 ul spots in 100% DMSO on a 96-well CulturPlate plates. HOS cells (50 ul) were added first to the wells, followed immediately by the HEK cells (50 ul). The final concentration of each cell type was 20,000 cells per well. Following these additions, the cells were returned to a tissue culture incubator (37° C.; 5% CO2/95% air) for an additional 24 h.
Following the 24 h incubation, total cellular luciferase activity was measured using the LucLite Plus assay kit (Packard, Meridien, Conn.). […]

human CXCR4 = target: T1, human CXCR4 (Homo sapiens, UniProt P61073); test: Functional FLIPR assay (block of SDF-1 alpha induced [Ca2+]i change); conditions: HEK-293 cells with human CXCR4 BacMam and Gqi5 BacMam; antagonism of SDF-1 alpha; read-out: Functional assay (pIC50) (converted)
T1 construct: expressed in transfected cells; host or cells: HEK-293 cells (stably expressing human macrophage scavenging receptor) transduced with human CXCR4 BacMam and Gqi5 BacMam baculoviruses
T1 sequence (P61073 whole entry): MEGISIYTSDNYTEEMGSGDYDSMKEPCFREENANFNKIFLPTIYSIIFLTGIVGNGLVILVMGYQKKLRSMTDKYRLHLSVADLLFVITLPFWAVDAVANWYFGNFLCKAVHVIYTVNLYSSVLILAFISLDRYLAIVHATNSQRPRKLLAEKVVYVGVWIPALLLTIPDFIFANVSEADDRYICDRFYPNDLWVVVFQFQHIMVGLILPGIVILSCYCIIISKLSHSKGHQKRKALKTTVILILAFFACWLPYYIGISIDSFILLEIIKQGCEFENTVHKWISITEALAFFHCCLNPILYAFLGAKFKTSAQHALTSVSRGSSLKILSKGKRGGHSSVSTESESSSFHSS
Procedure: Human embryonic kidney (HEK-293) cells were maintained and harvested as described above. Cells were plated in 96-well, black clear bottom, poly-lysine coated plates at a concentration of 40,000 cells per well in a final volume of 100 ul containing human CXCR4BacMam (MOI=25) and Gqi5 BacMam (MOI=12.5). The cells were incubated at 37° C., 5% CO2, 95% humidity for 24 h to allow for protein expression.
After the required incubation time the cells were washed once with 50 ul of fresh serum-free DMEM/F12 media containing probenicid. 50 ul of dye solution was then added to the cells (Calcium Plus Assay Kit Dye; Molecular Devices) was dissolved in 200 ml of the above probenicid/BSA containing media and incubated for 1 h. Cell plates were transferred to a Fluorometric Imaging Plate Reader (FLIPR). Upon addition the effect of the compounds on the change in [Ca^2+]i was examined to determine if the compounds were agonists or antagonists (ability to block SDF-1 alpha activity) at the CXCR4 receptor. IC50 values are determined and pKb values are calculated using the Leff and Dougall equation: KB=IC50/((2+([agonist]/EC50ˆb)ˆ1/b−1) Where IC50 is that defined by the antagonist concentration-response curve [agonist] is the EC80 concentration of agonist used EC50 is that defined by the agonist concentration-response curve b is the slope of the agonist concentration-response curve.

[4] = Human immunodeficiency virus 1, IIIB, as determined by the infectivity assay, strain not stated in Table 2, read-out: Activity Level
[5] = Human immunodeficiency virus 1, HIV-1 IIIB, HOS cells, 96 h, luciferase readout, read-out: HOS (3B)

Compound: CN(Cc1nc2cccc(C(=O)NCCc3c[nH]cn3)c2n1C)C1CCCc2cccnc21 (centres unmarked) [Example 7, N-[2-(1H-Imidazol-4-yl)ethyl]-1-methyl-2-{[methyl(5,6,7,8-tetrahydro-8-quinolinyl)amino]methyl}-1H-benzimidazole-7-carboxamide]
IC50 [1, 4]: < 100 nM | IC50 [1, 5]: 8 nM | IC50 at 96 h [2]: > 100 µM | IC50 [3]: 55 nM | IC50 (human CXCR4): 8.51 nM

Compound: CN(Cc1nc2cccc(C(=O)N3CCNCC3)c2n1C)C1CCCc2cccnc21 (centres unmarked) [Example 8, N-Methyl-N-{[1-methyl-7-(1-piperazinylcarbonyl)-1H-benzimidazol-2-yl]methyl}-5,6,7,8-tetrahydro-8-quinolinamine]
IC50 [1, 4]: < 100 nM | IC50 [1, 5]: 43 nM | IC50 at 96 h [2]: > 100 µM | IC50 [3]: 53.7 nM | IC50 (human CXCR4): 33.9 nM

Compound: CN(Cc1nc2c(C(=O)NCCc3c[nH]cn3)cccc2n1C)C1CCCc2cccnc21 (centres unmarked) [Example 9, N-[2-(1H-Imidazol-4-yl)ethyl]-1-methyl-2-{[methyl(5,6,7,8-tetrahydro-8-quinolinyl)amino]methyl}-1H-benzimidazole-4-carboxamide]
IC50 [1, 4]: < 100 nM | IC50 [1, 5]: 56 nM | IC50 at 96 h [2]: > 100 µM | IC50 [3]: 75.9 nM | IC50 (human CXCR4): 91.2 nM

Compound: CN(Cc1nc2c(C(=O)N3CCNCC3)cccc2n1C)C1CCCc2cccnc21 (centres unmarked) [Example 10, N-Methyl-N-{[1-methyl-4-(1-piperazinylcarbonyl)-1H-benzimidazol-2-yl]methyl}-5,6,7,8-tetrahydro-8-quinolinamine]
IC50 [1, 4]: 500 to 10000 nM | IC50 [1, 5]: 840 nM | IC50 at 96 h [2]: > 100 µM | IC50 [3]: 1910 nM | IC50 (human CXCR4): 1410 nM

Compound: CN(Cc1nc2cccc(C(=O)NCCCCN)c2[nH]1)C1CCCc2cccnc21 (centres unmarked) [Example 11, N-(4-Aminobutyl)-2-{[methyl(5,6,7,8-tetrahydro-8-quinolinyl)amino]methyl}-1H-benzimidazole-4-carboxamide]
IC50 [1, 4]: 100 to 500 nM | IC50 [1, 5]: 395 nM | IC50 at 96 h [2]: > 100 µM | IC50 [3]: 741 nM | IC50 (human CXCR4): 257 nM

Compound: CN1CCN(c2cccc3nc(CNC4CCc5cccnc54)[nH]c23)CC1 (centres unmarked) [Example 182, N-{[4-(4-Methyl-1-piperazinyl)-1H-benzimidazol-2-yl]methyl}-6,7-dihydro-5H-cyclopenta[b]pyridin-7-amine]
IC50 [1, 4]: 100 to 500 nM

Compound: CN1CCN(c2cccc3nc(CN(C)C4CCc5cccnc54)[nH]c23)CC1 (centres unmarked) [Example 183, N-Methyl-N-{[4-(4-methyl-1-piperazinyl)-1H-benzimidazol-2-yl]methyl}-6,7-dihydro-5H-cyclopenta[b]pyridin-7-amine]
IC50 [1, 4]: < 100 nM

Compound: CN1CCN(c2cccc3nc(CNC4CCCCc5cccnc54)[nH]c23)CC1 (centres unmarked) [Example 184, N-{[4-(4-methyl-1-piperazinyl)-1H-benzimidazol-2-yl]methyl}-6,7,8,9-tetrahydro-5H-cyclohepta[b]pyridin-9-amine]
IC50 [1, 4]: < 100 nM

Further lines, with some results ahead:

IC50 [1, 4]: < 100 nM | IC50 [1, 5]: 50 nM
Compound: CC(C)CN1CCN(c2cccc3[nH]c(CN(C)C4CCCc5cccnc54)nc23)CC1 (centres unmarked) [Example 36, N-methyl-N-({4-[4-(2-methylpropyl)-1-piperazinyl]-1H-benzimidazol-2-yl}methyl)-5,6,7,8-tetrahydro-8-quinolinamine]
IC50 at 96 h [2]: > 100 µM

IC50 [1, 4]: < 100 nM
Compound: Cn1c(CN(CCCO)[C@H]2CCCc3cccnc32)nc2cccc(N3CCNCC3)c21 [Example 179, 3-{{[1-Methyl-7-(1-piperazinyl)-1H-benzimidazol-2-yl]methyl}[(8S)-5,6,7,8-tetrahydro-8-quinolinyl]amino-}1-propanol]

IC50 [1, 4]: < 100 nM
Compound: CN1CCN(c2cccc3nc(CN(CCO)[C@H]4CCCc5cccnc54)n(C)c23)CC1 [Example 180, 2-{{[1-Methyl-7-(4-methyl-1-piperazinyl)-1H-benzimidazol-2-yl]methyl}[(8S)-5,6,7,8-tetrahydro-8-quinolinyl]amino}ethanol]

IC50 [1, 4]: < 100 nM
Compound: CN1CCN(c2cccc3nc(CN(CCCO)[C@H]4CCCc5cccnc54)n(C)c23)CC1 [Example 181, 3-{{[1-Methyl-7-(4-methyl-1-piperazinyl)-1H-benzimidazol-2-yl]methyl}[(8S)-5,6,7,8-tetrahydro-8-quinolinyl]amino}-1-propanol]

IC50 [1, 4]: < 100 nM
Compound: CN1CCN(c2cccc3nc(CN(C)C4CCCCc5cccnc54)[nH]c23)CC1 (centres unmarked) [Example 185, N-methyl-N-{[4-(4-methyl-1-piperazinyl)-1H-benzimidazol-2-yl]methyl}-6,7,8,9-tetrahydro-5H-cyclohepta[b]pyridin-9-amine]
